Values belong to the compound of their own block, whether it stands above or below them.
Assays:
Triglycerides = experiment: Blood triglycerides before and 90 minutes after administration; assay type: in vivo, human
Protocol: (§1) Subject 5 was a person, weighing approximately 285 pounds and with a normal fasting blood sugar level of 115-120. First, blood was drawn from Subject 5 and levels of various biomolecules were measured. Next, Subject 5 was administered 16.66 ml of the Example 1 formulation on an empty stomach, i.e. wherein with each 16.66 ml the subject received 5,000 mg of the potassium-magnesium (−)-hydroxycitric acid salt, corresponding to 3490 mg of (−)-hydroxycitric acid. 90 minutes after the administration, blood was drawn from Subject 5 and levels of the various biomolecules were remeasured.
(§2) Subject 6 was administered 16.66 ml of the Example 1 formulation on an empty stomach, i.e. wherein with each 16.66 ml the subject received 5,000 mg of the potassium-magnesium (−)-hydroxycitric acid salt, corresponding to 3490 mg of (−)-hydroxycitric acid. 90 minutes after the administration, blood was drawn from Subject 6 and levels of the various biomolecules were remeasured.

Cortisol = experiment: Blood cortisol before and 90 minutes after administration; assay type: in vivo, human
Protocol: as §1, §2

ATP citrate lyase = molecular target: T1, ATP citrate lyase (Homo sapiens, UniProt P53396); conditions: background statement; cited from earlier work
T1 sequence (P53396 1-1101): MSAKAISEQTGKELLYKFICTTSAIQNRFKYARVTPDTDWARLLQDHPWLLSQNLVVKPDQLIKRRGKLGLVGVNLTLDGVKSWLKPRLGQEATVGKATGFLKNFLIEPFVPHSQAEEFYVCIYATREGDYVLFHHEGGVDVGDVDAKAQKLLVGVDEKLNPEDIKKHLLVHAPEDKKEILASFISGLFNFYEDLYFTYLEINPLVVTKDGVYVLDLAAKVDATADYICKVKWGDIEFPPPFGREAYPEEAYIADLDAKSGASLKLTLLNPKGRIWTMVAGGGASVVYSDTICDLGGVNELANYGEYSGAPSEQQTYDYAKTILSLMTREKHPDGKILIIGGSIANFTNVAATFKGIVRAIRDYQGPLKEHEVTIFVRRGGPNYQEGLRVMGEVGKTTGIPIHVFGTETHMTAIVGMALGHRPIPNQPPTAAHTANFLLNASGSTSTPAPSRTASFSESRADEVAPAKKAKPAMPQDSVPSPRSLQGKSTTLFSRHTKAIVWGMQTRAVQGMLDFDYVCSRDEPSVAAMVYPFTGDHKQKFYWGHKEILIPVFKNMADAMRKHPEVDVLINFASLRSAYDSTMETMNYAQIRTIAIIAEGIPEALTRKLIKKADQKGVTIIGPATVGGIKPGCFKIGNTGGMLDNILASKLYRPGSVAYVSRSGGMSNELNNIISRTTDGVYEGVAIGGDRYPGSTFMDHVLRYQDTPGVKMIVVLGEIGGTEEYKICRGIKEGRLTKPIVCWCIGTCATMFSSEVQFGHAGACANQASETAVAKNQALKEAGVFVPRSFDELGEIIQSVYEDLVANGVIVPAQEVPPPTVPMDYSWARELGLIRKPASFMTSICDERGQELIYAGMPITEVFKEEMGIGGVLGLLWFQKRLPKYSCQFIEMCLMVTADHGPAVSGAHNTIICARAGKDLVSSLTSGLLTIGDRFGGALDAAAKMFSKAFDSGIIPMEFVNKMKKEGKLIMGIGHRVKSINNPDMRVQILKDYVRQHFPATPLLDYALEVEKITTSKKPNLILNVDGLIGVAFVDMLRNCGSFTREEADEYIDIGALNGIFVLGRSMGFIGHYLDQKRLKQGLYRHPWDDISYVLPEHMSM

Ketones = experiment: Blood ketones before and 90 minutes after administration; assay type: in vivo, human
Protocol: as §1

[1] = system: blood hemoglobin and oxygen saturation; experiment: fNIRS measurement of blood hemoglobin and oxygen saturation after oral administration; assay type: in vivo, human; conditions: conclusion, summary over subjects
Protocol: Subjects 1-4 were orally administered the formulation of Example 1. The Subjects were given either one or two administrations of 8.33 ml of the aqueous formulation of Example 1 on an empty stomach, i.e. wherein with each 8.33 ml the subject received 2,500 mg of the potassium-magnesium (−)-hydroxycitric acid salt, corresponding to 1745 mg of (−)-hydroxycitric acid.
fNIRS testing (functional Near Infrared Spectroscopy) was used to measure blood hemoglobin and oxygen saturation. fNIRS can be used to determine real-time peripheral and cerebral hemodynamic responses. For example, relative changes in HbR (deoxygen saturation), HbO (oxygen saturation), and HbT (total hemoglobin concentration), etc. can be determined via application of Modified Beer Lambert Law. HbR, Hb=deoxygen saturation (shown as the thinnest and bottom dashed line in FIG. 1) HbO, HbO2=oxygen saturation (shown as the medium-thickness and middle line in FIG. 1) HbT=total hemoglobin concentration (shown as the darkest, thickest and top line in FIG. 1). On the graphs, time is in seconds.

blood sugar = experiment: Blood sugar levels after HCA administration; assay type: in vivo, human; conditions: conclusion, summary; in some cases only transient
Protocol: as §1, with “remeasured. […] It is hypothesized that this transient elevation is due to Randall's Cycle. […] In support of this explanation, it is noted that this subject had previously used HCA formulations with the result of keeping their otherwise elevated fasting blood glucose levels in the low- to mid-90s with consistent usage.” for “remeasured.”

pancreatic alpha-amylase = molecular target: T2, pancreatic alpha-amylase (Homo sapiens, UniProt P04746); conditions: background statement; in vitro; cited from earlier work
T2 sequence (P04746 16-511): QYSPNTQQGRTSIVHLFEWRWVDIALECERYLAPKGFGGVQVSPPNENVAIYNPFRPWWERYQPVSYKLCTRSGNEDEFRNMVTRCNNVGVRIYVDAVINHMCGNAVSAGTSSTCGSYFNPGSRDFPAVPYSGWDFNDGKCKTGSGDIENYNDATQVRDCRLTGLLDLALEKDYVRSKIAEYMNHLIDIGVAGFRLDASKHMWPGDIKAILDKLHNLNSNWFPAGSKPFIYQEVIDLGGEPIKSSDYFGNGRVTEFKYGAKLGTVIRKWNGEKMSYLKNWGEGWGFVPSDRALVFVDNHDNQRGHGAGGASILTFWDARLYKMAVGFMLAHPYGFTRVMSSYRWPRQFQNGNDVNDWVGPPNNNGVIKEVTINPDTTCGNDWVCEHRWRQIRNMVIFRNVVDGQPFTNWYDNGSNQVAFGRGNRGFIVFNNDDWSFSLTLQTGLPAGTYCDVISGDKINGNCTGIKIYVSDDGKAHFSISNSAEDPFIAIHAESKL

[2] = system: intestinal alpha-glucosidase; conditions: background statement; in vitro; cited from earlier work
[3] = conclusion, summary over subjects
[4] = a subject (Example 3), 5,000 mg salt (3,490 mg (−)-hydroxycitric acid), 90 minutes later

glucose (blood sugar): increased
Compound: O=C(O)CC(O)(C(=O)O)C(O)C(=O)O (stereo not drawn) [HCA, 1,2-dihydroxypropane-1,2,3-tricarboxylic acid]
triglycerides (Triglycerides; [3]): decreased | cortisol (Cortisol; [3]): decreased | inhibition of ATP citrate lyase (ATP citrate lyase): competitive inhibitor | Ketones Result (Ketones; Subject 5, 5,000 mg salt, empty stomach, 90 mins after administration, before 0.6): 0.5 | levels of ketones (Ketones; conclusion, summary): relatively stable or slightly lower | blood hemoglobin [1]: increased | oxygen saturation [1]: increased

Compound: O=C(O)C[C@](O)(C(=O)O)[C@H](O)C(=O)O [(2S,3R)-HCA]
inhibition of pancreatic alpha-amylase (pancreatic alpha-amylase): inhibits | inhibition of intestinal alpha-glucosidase [2]: inhibits

Compound: potassium-magnesium salt of (−)-hydroxycitric acid
decrease in triglyceride level (Triglycerides; [4]): 67% | decrease in cortisol level (Cortisol; [4]): 20%

From patent US11766415B2, “Reducing triglyceride levels and cortisol levels with pharmaceutical preparations” (GLYKON TECHNOLOGIES GROUP, LLC, priority 2020, dated 2023)
